Patent US9669030B2, “Hydantoin derivatives as Kv3 inhibitors” (AUTIFONY THERAPEUTICS LIMITED, priority 2012, dated 2017)

Tested on: chinchilla model of acute noise-induced hearing loss
Assay: chinchilla model of acute noise-induced hearing loss, auditory brainstem response thresholds
Format: in vivo
Settings: 60 mg/kg intraperitoneal, doses 12 hours apart, five pre- and five post-noise, 105 dB SPL noise centered at 4 kHz for 6 hours, 21 days after noise exposure, 2, 4, 6, 8 kHz, p<0.01
Description: The otoprotective efficacy (i.e. the ability to prevent or reduce the development of permanent acute noise-induced hearing loss) of an exemplary Kv3 modulator, Example 64 described within WO2011069951A1 ((5R)-5-ethyl-5-methyl-3-[2-({4-methyl-3-[(trifluoromethyl)oxy]phenyl}oxy)-5-pyrimidinyl]-2,4-imidazolidinedione), referred to herein as “COMPOUND X”, was investigated using a chinchilla model of acute noise-induced hearing loss, as follows:
Subjects comprised male, 3 year old chinchillas (Laniger), 10 animals per group. Chinchillas were housed in the study facility for a minimum of 5 days prior to noise exposure. Food and water were available ad libitum. Animals were maintained at 21° C. on a 12/12 light/dark cycle. […]
Auditory brainstem responses (ABRs) were collected prior to noise exposure and 21 days after noise exposure. […] Thresholds were measured in response to tone-bursts with 1 ms rise/fall and a 0 ms plateau gated by a Blackman envelope and centred at the frequencies of 2, 4, 6 and 8 kHz, presented at 30/s. […]
The thresholds for ABRs at the four different sound frequencies at day 21 post-noise exposure were compared to the thresholds at baseline, prior to noise exposure in order to determine a threshold shift for each animal. The data were then analysed using a 2-way ANOVA, with treatment and frequency as main factors.

**Q.** CC[C@@]1(C)NC(=O)N(c2cnc(Oc3ccc(C)c(OC(F)(F)F)c3)nc2)C1=O [COMPOUND X, (5R)-5-ethyl-5-methyl-3-[2-({4-methyl-3-[(trifluoromethyl)oxy]phenyl}oxy)-5-pyrimidinyl]-2,4-imidazolidinedione] was tested. Which “permanent threshold shift in ABRs” value did it give?
**A.** significantly reduced
